Legend:
Assay in all cases: Transient transfection (transactivation) assay in CV-1 cells, GAL4-PPAR chimera, luciferase reporter
Format in all cases: cell-based
PPAR alpha = molecular target: T1, PPAR alpha (Homo sapiens, UniProt Q07869)
T1 construct: expressed in transfected cells; host or cells: CV-1 cells
T1 sequence (Q07869 239-466 limits assumed): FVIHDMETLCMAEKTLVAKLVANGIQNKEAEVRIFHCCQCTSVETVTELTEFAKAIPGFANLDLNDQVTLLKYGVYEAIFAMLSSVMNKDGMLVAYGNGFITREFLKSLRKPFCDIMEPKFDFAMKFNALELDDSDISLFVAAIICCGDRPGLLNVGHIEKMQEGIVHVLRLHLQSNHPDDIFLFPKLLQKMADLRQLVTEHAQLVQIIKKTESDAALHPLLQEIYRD
Excerpt: Compounds may be screened for functional potency in transient transfection assays in CV-1 cells or other cell types for their ability to activate the PPAR subtypes (transactivation assay). A previously established chimeric receptor system was utilized to allow comparison of the relative transcriptional activity of the receptor subtypes on the same synthetic response element and to prevent endogenous receptor activation from complicating the interpretation of results. See, for example; Lehmann, J. M.; Moore, L. B.; Smith-Oliver, T. A; Wilkinson, W. O.; Willson, T. M.; Kliewer, S. A., An antidiabetic thiazolidinedione is a high affinity ligand for peroxisome proliferatur-activated receptor γ (PPARγ), J. Biol. Chem., 1995, 270, 12953-6. The ligand binding domains for murine and human PPAR-alpha, PPAR-gamma, and PPAR-delta are each fused to the yeast transcription factor GAL4 DNA binding domain. CV-1 cells were transiently transfected with expression vectors for the respective PPAR chimera along with a reporter construct containing four or five copies of the GAL4 DNA binding site driving expression of luciferase. After 8-16 h, the cells are replated into multi-well assay plates and the media is exchanged to phenol-red free DME medium supplemented with 5% delipidated calf serum. 4 hours after replating, cells were treated with either compounds or 1% DMSO for 20-24 hours. Luciferase activity was then assayed with Britelite (Perkin Elmer) following the manufacturer's protocol and measured with either the Perkin Elmer Viewlux or Molecular Devices Acquest Xsee, for example, Kliewer, S. A., et. al. Cell 1995, 83, 813-819). Rosiglitazone is used as a positive control in the hPPAR-γ assay. Wy-14643 and GW7647 is used as a positive control in the hPPAR-α assay. GW501516 is used as the positive control in the hPPAR-δ assay.
Compounds of Examples 1-233 were assayed to measure their biological activity with respect to their EC50 values and efficacy for modulating PPAR-alpha, PPAR-gamma, and PPAR-delta as set forth in Table 3.

PPAR gamma = molecular target: T2, PPAR gamma (Homo sapiens, UniProt P37231)
T2 construct: expressed in transfected cells; host or cells: CV-1 cells
T2 sequence (P37231 238-503 limits assumed): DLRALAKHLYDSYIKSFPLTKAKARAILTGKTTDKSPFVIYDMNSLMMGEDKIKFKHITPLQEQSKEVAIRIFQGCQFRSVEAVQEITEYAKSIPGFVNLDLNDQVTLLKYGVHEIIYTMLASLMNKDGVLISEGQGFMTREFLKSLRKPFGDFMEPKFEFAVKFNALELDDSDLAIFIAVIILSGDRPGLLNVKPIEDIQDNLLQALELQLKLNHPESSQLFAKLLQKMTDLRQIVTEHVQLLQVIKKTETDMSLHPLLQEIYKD
Excerpt: Compounds may be screened for functional potency in transient transfection assays in CV-1 cells or other cell types for their ability to activate the PPAR subtypes (transactivation assay). A previously established chimeric receptor system was utilized to allow comparison of the relative transcriptional activity of the receptor subtypes on the same synthetic response element and to prevent endogenous receptor activation from complicating the interpretation of results. […] The ligand binding domains for murine and human PPAR-alpha, PPAR-gamma, and PPAR-delta are each fused to the yeast transcription factor GAL4 DNA binding domain. CV-1 cells were transiently transfected with expression vectors for the respective PPAR chimera along with a reporter construct containing four or five copies of the GAL4 DNA binding site driving expression of luciferase. After 8-16 h, the cells are replated into multi-well assay plates and the media is exchanged to phenol-red free DME medium supplemented with 5% delipidated calf serum. 4 hours after replating, cells were treated with either compounds or 1% DMSO for 20-24 hours. Luciferase activity was then assayed with Britelite (Perkin Elmer) following the manufacturer's protocol and measured with either the Perkin Elmer Viewlux or Molecular Devices Acquest Xsee, for example, Kliewer, S. A., et. al. Cell 1995, 83, 813-819). Rosiglitazone is used as a positive control in the hPPAR-γ assay. Wy-14643 and GW7647 is used as a positive control in the hPPAR-α assay. GW501516 is used as the positive control in the hPPAR-δ assay.

PPAR delta = molecular target: T3, PPAR delta (Homo sapiens, UniProt Q03181)
T3 construct: expressed in transfected cells; host or cells: CV-1 cells
T3 sequence (Q03181 211-439 limits assumed): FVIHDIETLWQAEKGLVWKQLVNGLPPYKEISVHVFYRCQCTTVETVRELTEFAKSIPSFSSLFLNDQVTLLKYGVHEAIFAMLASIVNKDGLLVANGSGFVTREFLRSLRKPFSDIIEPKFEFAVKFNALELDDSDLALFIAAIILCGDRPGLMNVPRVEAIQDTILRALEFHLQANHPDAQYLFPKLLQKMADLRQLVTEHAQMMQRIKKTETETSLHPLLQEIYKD

SMILES | EC50 (PPAR alpha) [µM] | EC50 (PPAR gamma) [µM] | PPAR delta EC50 (PPAR delta) | EC50 (PPAR delta) [µM] | PPAR gamma EC50 (PPAR gamma)
Cc1ccc(S(=O)(=O)N2CCC(c3ccc(C(F)(F)F)cc3)CC2)cc1CC(=O)O [Example 48, {2-Methyl-5-[4-(4-trifluoromethyl-phenyl)-piperidine-1-sulfonyl]-phenyl}-acetic acid] | > 100 | 5 to 100 | B/C | – | –
Cc1ccc(S(=O)(=O)N2CCC(c3ccc(Cl)c(Cl)c3)CC2)cc1CC(=O)O [Example 49, {5-[4-(3,4-Dichloro-phenyl)-piperidine-1-sulfonyl]-2-methyl-phenyl)-acetic acid] | > 100 | 5 to 100 | – | 5 to 100 | –
Cc1ccc(S(=O)(=O)N2CCN(c3nc(Cl)cs3)CC2)cc1CC(=O)O [Example 50, {5-[4-(4-Chloro-thiazol-2-yl)-piperazine-1-sulfonyl]-2-methyl-phenyl}-acetic acid] | > 100 | 5 to 100 | – | 5 to 100 | –
Cc1ccc(S(=O)(=O)N2CCN(c3nc(Cl)c(Cl)s3)CC2)cc1CC(=O)O [Example 51, {5-[4-(4,5-Dichloro-thiazol-2-yl)-piperazine-1-sulfonyl]-2-methyl-phenyl}-acetic acid] | 5 to 100 | < 5 | – | < 5 | –
Cc1ccc(S(=O)(=O)N2CCN(c3nc(C(F)(F)F)cs3)CC2)cc1CC(=O)O [Example 53, {2-Methyl-5-[4-(4-trifluoromethyl-thiazol-2-yl)-piperazine-1-sulfonyl]-phenyl}-acetic acid] | > 100 | 5 to 100 | – | 5 to 100 | –
Cc1ccc(S(=O)(=O)N2CCN(c3ncc(C(F)(F)F)cc3Cl)CC2)cc1CC(=O)O [Example 54, {5-[4-(3-Chloro-5-trifluoromethyl-pyridin-2-yl)-piperazine-1-sulfonyl]-2-methyl-phenyl}-acetic acid] | < 5 | < 5 | – | < 5 | –
Cc1ccc(S(=O)(=O)N2CCN(c3ncc(Br)s3)CC2)cc1CC(=O)O [Example 55, {5-[4-(5-Bromo-thiazol-2-yl)-piperazine-1-sulfonyl]-2-methyl-phenyl}-acetic acid] | 5 to 100 | 5 to 100 | – | < 5 | –
Cc1ccc(S(=O)(=O)N2CCN(c3ccc([N+](=O)[O-])cn3)CC2)cc1CC(=O)O [Example 56, {2-Methyl-5-[4-(5-nitro-pyridin-2-yl)-piperazine-1-sulfonyl]-phenyl}-acetic acid] | > 100 | 5 to 100 | – | < 5 | –
Cc1ccc(S(=O)(=O)N2CCN(c3ncc(Cl)cn3)CC2)cc1CC(=O)O [Example 57, {5-[4-(5-Chloro-pyrimidin-2-yl)-piperazine-1-sulfonyl]-2-methyl-phenyl}-acetic acid] | 5 to 100 | < 5 | – | < 5 | –
Cc1ccc(S(=O)(=O)N2CCN(c3ncc(Br)cn3)CC2)cc1CC(=O)O [Example 58, {5-[4-(5-Bromo-pyrimidin-2-yl)-piperazine-1-sulfonyl]-2-methyl-phenyl}-acetic acid] | 5 to 100 | < 5 | – | < 5 | –
Cc1ccc(S(=O)(=O)N2CCN(c3ncc(C(F)(F)F)cn3)CC2)cc1CC(=O)O [Example 59, {2-Methyl-5-[4-(5-trifluoromethyl-pyrimidin-2-yl)-piperazine-1-sulfonyl]-phenyl}-acetic acid] | < 5 | < 5 | – | < 5 | –
Cc1ccc(S(=O)(=O)N2CCN(c3ccc(Br)cn3)CC2)cc1CC(=O)O [Example 61, {5-[4-(5-Bromo-pyridin-2-yl)-piperazine-1-sulfonyl]-2-methyl-phenyl}-acetic acid] | > 100 | < 5 | – | < 5 | –
Cc1ccc(S(=O)(=O)N2CCN(c3ccc(Cl)cn3)CC2)cc1CC(=O)O [Example 62, {5-[4-(5-Chloro-pyridin-2-yl)-piperazine-1-sulfonyl]-2-methyl-phenyl}-acetic acid] | > 100 | – | – | < 5 | B/C
Cc1ccc(S(=O)(=O)N2CCN(c3ncc(F)cn3)CC2)cc1CC(=O)O [Example 63, {5-[4-(5-Fluoro-pyrimidin-2-yl)-piperazine-1-sulfonyl]-2-methyl-phenyl}-acetic acid] | > 100 | 5 to 100 | – | < 5 | –
Cc1ccc(S(=O)(=O)N2CCN(c3nc(Cl)ncc3F)CC2)cc1CC(=O)O [Example 64, {5-[4-(2-Chloro-5-fluoro-pyrimidin-4-yl)-piperazine-1-sulfonyl]-2-methyl-phenyl}-acetic acid] | > 100 | 5 to 100 | – | > 100 | –
Cc1ccc(S(=O)(=O)N2CC=C(c3ccc(C(F)(F)F)cn3)CC2)cc1CC(=O)O [Example 66, [2-Methyl-5-(5-trifluoromethyl-3′,6′-dihydro-2^1H-[2,4′]bipyridinyl-1′-sulfonyl)-phenyl]-acetic acid] | 5 to 100 | > 100 | – | < 5 | –
Cc1ccc(S(=O)(=O)N2[C@H](C)CN(c3ccc(C(F)(F)F)c(F)c3)C[C@@H]2C)cc1CC(=O)O [Example 68, {5-[4-(3-Fluoro-4-trifluoromethyl-phenyl)-2,6-dimethyl-piperazine-1-sulfonyl]-2-methyl-phenyl}-acetic acid] | < 5 | 5 to 100 | – | < 5 | –
Cc1ccc(S(=O)(=O)N2CCN(c3ccc(C(F)(F)F)cn3)[C@@H](C)C2)cc1CC(=O)O [Example 70, {2-Methyl-5-[(S)-3-methyl-4-(5-trifluoromethyl-pyridin-2-yl)-piperazine-1-sulfonyl]-phenyl}-acetic acid] | < 5 | < 5 | – | < 5 | –
Cc1ccc(S(=O)(=O)N2C[C@@H](C)N(c3ccc(C(F)(F)F)cn3)[C@@H](C)C2)cc1CC(=O)O [Example 72, {2-Methyl-5-[3,5-dimethyl-4-(5-trifluoromethyl-pyridin-2-yl)-piperazine-1-sulfonyl]-phenyl}-acetic acid] | > 100 | > 100 | – | 5 to 100 | –
Cc1ccc(S(=O)(=O)N2CCN(c3ccc4occc4c3)CC2C)cc1CC(=O)O (stereo not drawn) [Example 73, [5-(4-Benzofuran-5-yl-2-methyl-piperazine-1-sulfonyl)-2-methyl-phenyl]-acetic acid] | > 100 | > 100 | – | 5 to 100 | –
Cc1ccc(S(=O)(=O)N2CCN(c3ccc(C(F)(F)F)nn3)CC2)cc1CC(=O)O [Example 74] | > 100 | > 100 | – | 5 to 100 | –
COc1ccc(S(=O)(=O)N2CCN(c3ccc(C(F)(F)F)cc3)CC2)cc1CC(=O)O [Example 75, {2-Methoxy-5-[4-(4-trifluoromethyl-phenyl)-piperazine-1-sulfonyl]-phenyl}-acetic acid] | > 100 | 5 to 100 | – | < 5 | –
COc1ccc(S(=O)(=O)N2CCN(c3ccc(C(F)(F)F)cn3)CC2)cc1CC(=O)O [Example 76, {2-Methoxy-5-[4-(5-trifluoromethyl-pyridin-2-yl)-piperazine-1-sulfonyl]-phenyl}-acetic acid] | > 100 | 5 to 100 | – | < 5 | –
COc1ccc(S(=O)(=O)N2CCN(c3ccc(C(F)(F)F)cn3)CC2C)cc1CC(=O)O (stereo not drawn) [Example 77, {2-Methoxy-5-[2-methyl-4-(5-trifluoromethyl-pyridin-2-yl)-piperazine-1-sulfonyl]-phenyl}-acetic acid] | > 100 | 5 to 100 | – | < 5 | –

Reference: patent publication US20050234046A1 (Kalypsys, Inc., priority 2004, published 2005)
